Measurements reported in the supplement of paper PMC10307832.

Assays:
Assay in all cases: relative viability (nuclei count vs DMSO), 5 days (fraction); higher = more cells survive
[1] = compound: CN(C)C[C@@H]1CCn2cc(c3ccccc32)C2=C(C(=O)NC2=O)c2cn(c3ccccc23)CCO1 [Ruboxistaurin] + CC(=O)c1c(C)c2cnc(Nc3ccc(N4CCNCC4)cn3)nc2n(C2CCCC2)c1=O [Palbociclib] (partner 0.5 µM)
How it was run: (§1)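 A single step with final 0.05% Triton X-100, 1% formaldehyde and 1 ug/ml Hoechst fixed the cells and stained nuclei 5 days after treatment. Lung cancer cell lines in 1536-well plates had been treated by pin tool the day after seeding with one drug alone or a fixed anchor-drug dose plus five library-drug doses (not always all listed) in √10 steps, and nuclei were counted on 4× images. Relative viability is the ratio of nuclei in treated wells to nuclei in vehicle wells, taken as the median of duplicate plates.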

[2] = compound: CN(C)C[C@@H]1CCn2cc(c3ccccc32)C2=C(C(=O)NC2=O)c2cn(c3ccccc23)CCO1 [Ruboxistaurin] + CC(C)C[C@H](NC(=O)[C@H](Cc1ccccc1)NC(=O)c1cnccn1)B(O)O [Bortezomib] (partner 0.002 µM)
How it was run: as §1

[3] = compound: CN(C)C[C@@H]1CCn2cc(c3ccccc32)C2=C(C(=O)NC2=O)c2cn(c3ccccc23)CCO1 [Ruboxistaurin] + COc1cc2c(Oc3ccc(NC(=O)C4(C(=O)Nc5ccc(F)cc5)CC4)cc3F)ccnc2cc1OCCCN1CCOCC1 [Foretinib] (partner 0.25 µM)
How it was run: as §1

[4] = compound: CN(C)C[C@@H]1CCn2cc(c3ccccc32)C2=C(C(=O)NC2=O)c2cn(c3ccccc23)CCO1 [Ruboxistaurin] + Nc1nc2[nH]cc(CCc3ccc(C(=O)N[C@@H](CCC(=O)O)C(=O)O)cc3)c2c(=O)[nH]1 [Pemetrexed] (partner 0.2 µM)
How it was run: as §1

[5] = compound: CN(C)C[C@@H]1CCn2cc(c3ccccc32)C2=C(C(=O)NC2=O)c2cn(c3ccccc23)CCO1 [Ruboxistaurin] + Nc1ncn([C@H]2C[C@H](O)[C@@H](CO)O2)c(=O)n1 [Decitabine] (partner 2 µM)
How it was run: as §1

| Cell Line | relative viability ([1]; first compound 0.08 µM) | relative viability ([1]; first compound 0.8 µM) | relative viability ([1]; first compound 2.53 µM) | relative viability ([1]; first compound 8 µM) | relative viability ([2]; first compound 0.08 µM) | relative viability ([2]; first compound 0.8 µM) | relative viability ([2]; first compound 2.53 µM) | relative viability ([2]; first compound 8 µM) | relative viability ([3]; first compound 0.08 µM) | relative viability ([3]; first compound 0.8 µM) | relative viability ([3]; first compound 2.53 µM) | relative viability ([3]; first compound 8 µM) | relative viability ([4]; first compound 0.08 µM) | relative viability ([4]; first compound 0.8 µM) | relative viability ([4]; first compound 2.53 µM) | relative viability ([4]; first compound 8 µM) | relative viability ([5]; first compound 0.08 µM) | relative viability ([5]; first compound 0.8 µM) | relative viability ([5]; first compound 2.53 µM) | relative viability ([5]; first compound 8 µM) |
| --- | --- | --- | --- | --- | --- | --- | --- | --- | --- | --- | --- | --- | --- | --- | --- | --- | --- | --- | --- | --- |
| LCLC-97TM1 | 0.217 | 0.199 | 0.235 | 0.227 | 0.845 | 0.487 | 0.58 | 0.685 | 0.863 | 0.891 | 0.923 | 0.825 | 0.193 | 0.172 | 0.198 | 0.16 | 0.179 | 0.191 | 0.278 | 0.231 |
| LCLC-103H | 0.446 | 0.49 | 0.446 | 0.451 | 1.19 | 1.12 | 0.968 | 1.01 | 0.783 | 0.612 | 0.777 | 0.56 | 0.47 | 0.479 | 0.434 | 0.608 | 0.805 | 0.648 | 0.726 | 0.699 |
| LOU-NH91 | 0.536 | 0.518 | 0.52 | 0.571 | 0.475 | 0.473 | 0.443 | 0.457 | 1.02 | 0.879 | 0.898 | 0.944 | 0.398 | 0.405 | 0.407 | 0.434 | 0.909 | 0.772 | 0.855 | 0.775 |
| LU99A | 0.473 | 0.388 | 0.482 | 0.31 | 1.19 | 1.06 | 1.11 | 0.968 | 0.802 | 0.774 | 0.778 | 0.751 | 0.159 | 0.179 | 0.171 | 0.203 | 0.861 | 0.762 | 1.01 | 0.773 |
| LXF-289 | 0.589 | 0.542 | 0.571 | 0.588 | 1.03 | 0.941 | 0.976 | 1.06 | 1.01 | 0.895 | 0.966 | 1.04 | 0.884 | 0.91 | 0.906 | 1.02 | 0.377 | 0.338 | 0.38 | 0.418 |
| NCI-H23 | 0.492 | 0.445 | 0.53 | 0.461 | 1.2 | 0.871 | 1.01 | 0.929 | 1 | 0.897 | 1.1 | 0.936 | 0.73 | 0.541 | 0.666 | 0.45 | 0.279 | 0.259 | 0.364 | 0.283 |
| NCI-H322M | 0.492 | 0.47 | 0.454 | 0.384 | 1.2 | 1.16 | 1.16 | 1.28 | 0.947 | 0.922 | 0.981 | 0.627 | 0.646 | 0.528 | 0.596 | 0.47 | 0.746 | 0.656 | 0.6 | 0.619 |
| NCI-H441 | 0.234 | 0.174 | 0.248 | 0.202 | 0.636 | 0.296 | 0.431 | 0.448 | 0.87 | 0.884 | 1.18 | 0.938 | 0.254 | 0.307 | 0.287 | 0.278 | 0.278 | 0.309 | 0.277 | 0.269 |
| NCI-H460 | 0.158 | 0.125 | 0.201 | 0.14 | 1.1 | 1.03 | 0.916 | 0.824 | 1.03 | 0.904 | 1.08 | 0.996 | 0.0661 | 0.0571 | 0.0621 | 0.0636 | 0.49 | 0.448 | 0.533 | 0.595 |
| NCI-H520 | 0.236 | 0.222 | 0.246 | 0.185 | 0.856 | 0.66 | 0.806 | 0.423 | 0.628 | 0.693 | 1.05 | 0.786 | 0.666 | 0.506 | 0.532 | 0.494 | 0.535 | 0.477 | 0.544 | 0.612 |
| NCI-H647 | 0.473 | 0.395 | 0.432 | 0.415 | 1.21 | 0.817 | 0.869 | 1.3 | 1.27 | 0.832 | 1.19 | 1.32 | 0.173 | 0.222 | 0.196 | 0.161 | 0.442 | 0.33 | 0.373 | 0.547 |
| NCI-H650 | 0.339 | 0.337 | 0.377 | 0.383 | 0.816 | 0.698 | 0.927 | 0.915 | 1.11 | 1.01 | 1.06 | 1.2 | 0.995 | 0.948 | 0.981 | 0.817 | 0.312 | 0.343 | 0.296 | 0.34 |
| NCI-H661 | 0.424 | 0.416 | 0.437 | 0.46 | 0.887 | 0.664 | 0.883 | 0.88 | 1.05 | 0.996 | 1.07 | 1.07 | 0.932 | 0.873 | 0.921 | 0.874 | 0.563 | 0.555 | 0.578 | 0.61 |
| NCI-H838 | 0.234 | 0.19 | 0.215 | 0.213 | 0.876 | 0.772 | 1.09 | 0.618 | 1.13 | 0.923 | 1.19 | 0.998 | 0.248 | 0.222 | 0.222 | 0.225 | 0.476 | 0.445 | 0.526 | 0.583 |
| NCI-H1355 | 0.399 | 0.338 | 0.412 | 0.418 | 1.19 | 1.21 | 1.18 | 1.16 | 1.02 | 0.862 | 1.02 | 0.82 | 1.08 | 1 | 1.02 | 1.02 | 0.37 | 0.356 | 0.347 | 0.411 |
| NCI-H1437 | 0.337 | 0.302 | 0.303 | 0.308 | 0.64 | 0.461 | 0.526 | 0.516 | 1.29 | 1.21 | 1.37 | 1.38 | 0.309 | 0.299 | 0.315 | 0.313 | 0.571 | 0.621 | 0.622 | 0.702 |
| NCI-H1650 | 0.416 | 0.324 | 0.455 | 0.372 | 0.216 | 0.192 | 0.212 | 0.195 | 1.66 | 1.01 | 1.31 | 1.09 | 0.425 | 0.362 | 0.373 | 0.454 | 0.387 | 0.524 | 0.501 | 0.468 |
| NCI-H1651 | 0.528 | 0.482 | 0.531 | 0.494 | 0.975 | 0.877 | 0.942 | 0.958 | 1.04 | 0.772 | 0.794 | 0.841 | 0.612 | 0.586 | 0.585 | 0.528 | 0.698 | 0.542 | 0.681 | 0.632 |
| NCI-H1666 | 0.659 | 0.608 | 0.606 | 0.726 | 0.857 | 0.751 | 0.806 | 0.733 | 0.986 | 0.919 | 0.894 | 0.871 | 0.85 | 0.825 | 0.747 | 0.808 | 0.728 | 0.693 | 0.693 | 0.788 |
| NCI-H1734 | 0.354 | 0.328 | 0.367 | 0.312 | 1.01 | 0.781 | 1.06 | 0.816 | 0.852 | 0.783 | 0.922 | 0.683 | 0.425 | 0.394 | 0.4 | 0.4 | 0.535 | 0.466 | 0.501 | 0.521 |
| NCI-H1755 | 0.495 | 0.452 | 0.463 | 0.455 | 0.976 | 0.945 | 0.979 | 1.02 | 0.907 | 0.903 | 0.908 | 0.888 | 0.452 | 0.476 | 0.35 | 0.471 | 0.731 | 0.678 | 0.691 | 0.778 |
| NCI-H1915 | 0.542 | 0.482 | 0.536 | 0.421 | 0.985 | 0.928 | 0.985 | 0.896 | 1.05 | 1.03 | 1.02 | 0.899 | 0.508 | 0.439 | 0.443 | 0.426 | 0.252 | 0.262 | 0.277 | 0.268 |
| NCI-H1975 | 0.648 | 0.512 | 0.637 | 0.605 | 0.392 | 0.311 | 0.424 | 0.392 | 0.979 | 1.03 | 1.05 | 0.856 | 0.328 | 0.276 | 0.301 | 0.286 | 0.43 | 0.346 | 0.393 | 0.42 |
| NCI-H1993 | 0.716 | 0.666 | 0.712 | 0.556 | 1.3 | 0.925 | 1.01 | 0.83 | 0.941 | 0.623 | 0.905 | 0.691 | 0.482 | 0.565 | 0.633 | 0.577 | 0.579 | 0.559 | 0.582 | 0.522 |
| NCI-H2009 | 0.218 | 0.234 | 0.242 | 0.221 | 1.04 | 0.941 | 1.14 | 1.41 | 1.29 | 1.22 | 1.28 | 1.24 | 1.05 | 1.08 | 1.02 | 1.07 | 0.39 | 0.371 | 0.411 | 0.406 |
| NCI-H2023 | 0.381 | 0.31 | 0.333 | 0.393 | 1.1 | 0.898 | 1.06 | 0.819 | 1.22 |  | 0.787 | 0.693 | 0.228 | 0.188 | 0.224 | 0.151 | 0.214 | 0.214 | 0.254 | 0.256 |
